In patent US12503471B2, “Triazatricycle compounds for the treatment of autoimmune disease” (Hoffmann-La Roche Inc., priority 2019, dated 2025) one finds IC50 data, which are given here for 18 compounds.

A value given as a limit tells only on which side of the number the result lay.

The experiment concerns the target T1, human TLR8 (Homo sapiens, UniProt Q9NR97).
T1 construct: host or cells: HEK293 (HEK-Blue hTLR8)
T1 sequence (Q9NR97 27-1041): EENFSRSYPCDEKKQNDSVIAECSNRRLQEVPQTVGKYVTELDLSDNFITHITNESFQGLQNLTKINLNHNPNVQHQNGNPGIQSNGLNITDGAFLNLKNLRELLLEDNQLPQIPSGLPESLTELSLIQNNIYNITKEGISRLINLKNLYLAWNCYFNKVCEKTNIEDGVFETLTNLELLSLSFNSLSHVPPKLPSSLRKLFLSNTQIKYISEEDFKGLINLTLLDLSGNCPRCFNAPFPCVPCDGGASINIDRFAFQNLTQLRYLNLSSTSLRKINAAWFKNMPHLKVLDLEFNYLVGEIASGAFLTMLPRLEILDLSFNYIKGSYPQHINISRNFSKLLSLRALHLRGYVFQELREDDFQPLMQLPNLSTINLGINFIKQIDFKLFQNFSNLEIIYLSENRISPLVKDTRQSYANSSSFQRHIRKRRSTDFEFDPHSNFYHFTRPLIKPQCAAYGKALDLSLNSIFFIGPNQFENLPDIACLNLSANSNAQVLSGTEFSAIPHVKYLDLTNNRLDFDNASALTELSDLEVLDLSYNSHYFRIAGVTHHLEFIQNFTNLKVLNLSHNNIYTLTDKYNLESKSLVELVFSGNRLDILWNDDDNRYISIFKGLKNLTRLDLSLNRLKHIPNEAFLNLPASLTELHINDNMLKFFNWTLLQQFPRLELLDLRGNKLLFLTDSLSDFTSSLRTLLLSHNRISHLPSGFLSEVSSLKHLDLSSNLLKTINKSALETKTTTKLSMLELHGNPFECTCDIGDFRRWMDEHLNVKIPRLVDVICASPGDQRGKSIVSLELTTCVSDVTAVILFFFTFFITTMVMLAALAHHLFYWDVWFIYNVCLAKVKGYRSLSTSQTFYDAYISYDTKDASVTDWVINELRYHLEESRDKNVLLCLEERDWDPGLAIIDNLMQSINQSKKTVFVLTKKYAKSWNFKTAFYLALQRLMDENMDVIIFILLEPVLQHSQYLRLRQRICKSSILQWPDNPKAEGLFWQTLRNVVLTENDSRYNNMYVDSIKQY
Briefly: HEK293-Blue-hTLR-8 cells assay. The class given is cell-based. To be noted: HEK293-Blue-hTLR8 cells, R848 stimulation, 20 hrs, SEAP reporter; read-out: HEK/hTLR8 IC50. From the text:
HEK293-Blue-hTLR-8 Cells Assay:
A stable HEK293-Blue-hTLR-8 cell line was purchased from InvivoGen (Cat. #: hkb-htlr8, San Diego, Calif., USA). These cells were originally designed for studying the stimulation of human TLR8 by monitoring the activation of NF-κB. A SEAP (secreted embryonic alkaline phosphatase) reporter gene was placed under the control of the IFN-β minimal promoter fused to five NF-κB and AP-1-binding sites. The SEAP was induced by activating NF-κB and AP-1 via stimulating HEK-Blue hTLR8 cells with TLR8 ligands. Therefore the reporter expression was declined by TLR8 antagonist under the stimulation of a ligand, such as R848, for incubation of 20 hrs. The cell culture supernatant SEAP reporter activity was determined using QUANTI-Blue™ kit (Cat. #: rep-qbl, Invivogen, San Diego, Ca, USA) at a wavelength of 640 nm, a detection medium that turns purple or blue in the presence of alkaline phosphatase.
HEK293-Blue-hTLR8 cells were incubated at a density of 250,000˜450,000 cells/mL in a volume of 170 μL in a 96-well plate in Dulbecco's Modified Eagle's medium (DMEM) containing 4.5 g/L glucose, 50 U/mL penicillin, […], […], 2 mM L-glutamine, 10% (v/v) heat-inactivated fetal bovine serum with addition of 20 μL test compound in a serial dilution in the presence of final DMSO at 1% and 10 μL of 60 uM R848 in above DMEM, perform incubation under 37° C. in a CO2 incubator for 20 hrs. Then 20 μL of the supernatant from each well was incubated with 180 μL Quanti-blue substrate solution at 37° C. for 2 hrs and the absorbance was read at 620-655 nm using a spectrophotometer. The signaling pathway that TLR8 activation leads to downstream NF-κB activation has been widely accepted, and therefore similar reporter assay was modified for evaluating TLR8 antagonist.
Turning to `[2H]c1ccc2c(N3C[C@@H](C)N4Cc5nc(N6CCC7(CC6)CNCCO7)ccc5[C@H]4C3)ccc(C#N)c2n1` [Example 18, 2-Deuterio-5-[(2S,6R)-6-methyl-11-(1-oxa-4,9-diazaspiro[5.5]undecan-9-yl)-4,7,10-triazatricyclo[7.4.0.02,7]trideca-1(9),10,12-trien-4-yl]quinoline-8-carbonitrile], the IC50 is less than 0.3 nM.
Turning to `[2H]c1ccc2c(N3C[C@@H](C)N4Cc5nc(N6CC[C@@H](OC)[C@H](N)C6)ccc5[C@H]4C3)ccc(C#N)c2n1` [Example 15, 5-[(2S,6R)-11-[(3R,4R)-3-amino-4-methoxy-1-piperidyl]-6-methyl-4,7,10-triazatricyclo[7.4.0.02,7]trideca-1(9),10,12-trien-4-yl]-2-deuterio-quinoline-8-carbonitrile], the IC50 was less than 0.3 nM.
Take `[2H]c1ccc2c(N3C[C@@H](C)N4Cc5nc(N6CC[C@](C)(N)C6)ccc5[C@H]4C3)ccc(C#N)c2n1` [Example 8, 5-[(2S,6R)-11-[(3S)-3-amino-3-methyl-pyrrolidin-1-yl]-6-methyl-4,7,10-triazatricyclo[7.4.0.02,7]trideca-1(9),10,12-trien-4-yl]-2-deuterio-quinoline-8-carbonitrile]: the IC50 is less than 0.3 nM.
In the case of `[2H]c1ccc2c(N3C[C@@H](C)N4Cc5nc(N6CCC7(CNC7)C6)ccc5[C@H]4C3)ccc(C#N)c2n1` [Example 9, 2-Deuterio-5-[(2S,6R)-11-(2,6-diazaspiro[3.4]octan-6-yl)-6-methyl-4,7,10-triazatricyclo[7.4.0.02,7]trideca-1(9),10,12-trien-4-yl]quinoline-8-carbonitrile], the IC50 is 0.7 nM.
As for `[2H]c1ccc2c(N3C[C@@H](C)N4Cc5nc(N6CC[C@H](N)[C@H](OC)C6)ccc5[C@H]4C3)ccc(C#N)c2n1` [Example 13, 5-[(2S,6R)-11-[(3R,4S)-4-amino-3-methoxy-1-piperidyl]-6-methyl-4,7,10-triazatricyclo[7.4.0.02,7]trideca-1(9),10,12-trien-4-yl]-2-deuterio-quinoline-8-carbonitrile], the figure is less than 0.3 nM; as for `C[C@@H]1CN(c2ccc(C#N)c3ncccc23)C[C@@H]2c3ccc(N4CCNCC4)nc3CN12` [Example 5, 5-[(2S,6R)-6-methyl-11-piperazin-1-yl-4,7,10-triazatricyclo[7.4.0.02,7]trideca-1(9),10,12-trien-4-yl]quinoline-8-carbonitrile], less than 0.3 nM.
Consider `[2H]c1ccc2c(N3C[C@@H](C)N4Cc5nc(N6C[C@@H]7C[C@H]6CN7)ccc5[C@H]4C3)ccc(C#N)c2n1` [Example 16, 2-Deuterio-5-[(2S,6R)-11-[(1S,4S)-2,5-diazabicyclo[2.2.1]heptan-2-yl]-6-methyl-4,7,10-triazatricyclo[7.4.0.02,7]trideca-1(9),10,12-trien-4-yl]quinoline-8-carbonitrile], for which the IC50 was determined as 0.4 nM.
On to `[2H]c1ccc2c(N3C[C@@H](C)N4Cc5nc(N6C[C@H]7C[C@@H]6CN7)ccc5[C@H]4C3)ccc(C#N)c2n1` [Example 17, 2-Deuterio-5-[(2S,6R)-11-[(1R,4R)-2,5-diazabicyclo[2.2.1]heptan-2-yl]-6-methyl-4,7,10-triazatricyclo[7.4.0.02,7]trideca-1(9),10,12-trien-4-yl]quinoline-8-carbonitrile], for which the IC50 was less than 0.3 nM.
As for `CC1(N)CCN(c2ccc3c(n2)CN2CCN(c4ccc(C#N)c5ncccc45)C[C@@H]32)CC1` [Example 4A, 5-[(2R)-11-(4-amino-4-methyl-1-piperidyl)-4,7,10-triazatricyclo[7.4.0.02,7]trideca-1(9),10,12-trien-4-yl]quinoline-8-carbonitrile], the figure is 1.9 nM.
As for `C[C@@H]1CN(c2ccc(C#N)c3ncccc23)C[C@@H]2c3ccc(N4CC5CNCC(C4)O5)nc3CN12` [Example 6, 5-[(2S,6R)-6-methyl-11-(9-oxa-3,7-diazabicyclo[3.3.1]nonan-3-yl)-4,7,10-triazatricyclo[7.4.0.02,7]trideca-1(9),10,12-trien-4-yl]quinoline-8-carbonitrile], the figure is 2.3 nM; as for `N#Cc1ccc(N2CCN3Cc4nc(N5CCNCC5)ccc4[C@@H]3C2)c2cccnc12` [Example 3A, 5-[(2R)-11-piperazin-1-yl-4,7,10-triazatricyclo[7.4.0.02,7]trideca-1(9),10,12-trien-4-yl]quinoline-8-carbonitrile], 0.5 nM; as for `[2H]c1ccc2c(N3C[C@@H](C)N4Cc5nc(O[C@H]6CCNC6)ccc5[C@H]4C3)ccc(C#N)c2n1` [Example 25, 2-Deuterio-5-[(2S,6R)-6-methyl-11-[(3S)-pyrrolidin-3-yl]oxy-4,7,10-triazatricyclo[7.4.0.02,7]trideca-1(9),10,12-trien-4-yl]quinoline-8-carbonitrile], less than 0.3 nM.
As for `[2H]c1ccc2c(N3C[C@@H](C)N4Cc5nc(N6CC[C@@H](N)[C@H](OC)C6)ccc5[C@H]4C3)ccc(C#N)c2n1` [Example 11, 5-[(2S,6R)-11-[(3R,4R)-4-amino-3-methoxy-1-piperidyl]-6-methyl-4,7,10-triazatricyclo[7.4.0.02,7]trideca-1(9),10,12-trien-4-yl]-2-deuterio-quinoline-8-carbonitrile], the IC50 is less than 0.3 nM.
Turning to `C[C@@H]1CN(c2ccc(C#N)n3nccc23)C[C@@H]2c3ccc(N4C[C@@H]5C[C@H]4CN5)nc3CN12` [Example 21, 4-[(2S,6R)-11-[(1S,4S)-2,5-diazabicyclo[2.2.1]heptan-2-yl]-6-methyl-4,7,10-triazatricyclo[7.4.0.02,7]trideca-1(9),10,12-trien-4-yl]pyrazolo[1,5-a]pyridine-7-carbonitrile], the IC50 stood at 3.6 nM.
Turning to `[2H]c1ccc2c(N3C[C@@H](C)N4Cc5nc(C6CCNCC6)ccc5[C@H]4C3)ccc(C#N)c2n1` [Example 23, 2-Deuterio-5-[(2S,6R)-6-methyl-11-(4-piperidyl)-4,7,10-triazatricyclo[7.4.0.02,7]trideca-1(9),10,12-trien-4-yl]quinoline-8-carbonitrile], the IC50 amounted to 0.3 nM.
As to `C[C@@H]1CN(c2ccc(C#N)c3ncccc23)C[C@@H]2c3cnc(N4CCNCC4)cc3CN12` [Example 2, 5-[(2S,6R)-6-methyl-11-piperazin-1-yl-4,7,12-triazatricyclo[7.4.0.02,7]trideca-1(9),10,12-trien-4-yl] quinoline-8-carbonitrile], the IC50 was 0.4 nM.
Take `[2H]c1ccc2c(N3C[C@@H](C)N4Cc5nc(OC6CCNCC6)ccc5[C@H]4C3)ccc(C#N)c2n1` [Example 24, 2-Deuterio-5-[(2S,6R)-6-methyl-11-(4-piperidyloxy)-4,7,10-triazatricyclo[7.4.0.02,7]trideca-1(9),10,12-trien-4-yl]quinoline-8-carbonitrile]: the IC50 was less than 0.3 nM.
Consider `C[C@@H]1CN(c2ccc(C#N)c3ncccc23)C[C@@H]2c3ccc(N4CCCNCC4)nc3CN12` [Example 20, 5-[(2S,6R)-11-(1,4-diazepan-1-yl)-6-methyl-4,7,10-triazatricyclo[7.4.0.02,7]trideca-1(9),10,12-trien-4-yl]quinoline-8-carbonitrile], for which the IC50 is less than 0.3 nM.
